19 molecules from patent US20230278972A1, “SUBSTITUTED HALOALKYL SULFONANILIDE HERBICIDES” (FMC Corporation, priority 2020, published 2023) can be followed below.

Common to all, as to format: in vivo
In assay [1] the test system is rice (Oryza sativa). Description: Test B1 flooded paddy test, rice. Particulars: 250 g ai/ha, Flood, applied to paddy water, 2-leaf stage, visually evaluated after 10 to 14 days. The source says: (§1) A dash (-) response means no test result.
Assay [2] concerns ducksalad (Heteranthera limosa). Put plainly: Test B1 flooded paddy test, ducksalad. As to conditions: 250 g ai/ha, Flood, applied to paddy water, 2-leaf stage, visually evaluated after 10 to 14 days.
Source text: as §1

The test system of assay [3] is barnyardgrass (Echinochloa crus-galli). Description: Test B1 flooded paddy test, barnyardgrass. As to conditions: 250 g ai/ha, Flood, applied to paddy water, 2-leaf stage, visually evaluated after 10 to 14 days.
Source text: as §1

In assay [4] the test system is Foxtail, Giant (giant foxtail, Setaria faberi). Description: Test A1 preemergence, Foxtail, Giant. An outline of the steps:
(§2)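 Plants grown in pots of loam/sand mix; preemergence = soil-directed spray on seeded pots, postemergence = spray at 1–2 leaves, height 2–10 cm; test chemicals formulated in non-phytotoxic solvent with surfactant.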

Assay [5] deals with Oat, Wild (wild oat, Avena fatua). Put plainly: Test A1 preemergence, Oat, Wild. Summed up: as §2
For assay [6], the system named is kochia (Bassia scoparia). Description: Test A1 preemergence, kochia. An outline of the steps:
as §2

Assay [7] has as its system wheat (Triticum aestivum). Description: Test A1 postemergence, wheat. As to conditions: Postemergence. Summed up: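 Pre: seeds in loam/sand blend, directed soil spray. Post: potted plants, same soil, 2–10 cm, 1–2 leaf stage. Chemicals in non-phytotoxic solvent + surfactant for both.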
The subject of assay [8] is Foxtail, Giant (giant foxtail, Setaria faberi). Description: Test A postemergence, Foxtail, Giant. As to conditions: Setaria faberi, post-emergence, 240 h, Postemergence, 0 to 100 scale (0 no effect, 100 complete control); for pest or weed control at 125 g/ha: 125 g ai/ha; for pest or weed control at 500 g/ha: 500 g ai/ha. Summed up: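 Seeds are sown in loam mixed with sand and sprayed on the soil surface right after planting for the preemergence test. Postemergence pots are sprayed once seedlings reach 2 to 10 cm at the one- to two-leaf stage. The same surfactant-containing, non-phytotoxic solvent formulation serves both.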

Where [9] appears, read: 31 g ai/ha, 0 to 100 scale (0 no effect, 100 complete control).
Setting [10] is: 125 g ai/ha, 0 to 100 scale, 0 no effect, 100 complete control.
[11] abbreviates: 31 g ai/ha, 0 to 100 scale (0 no effect, 100 complete control), 10 days.
Where [12] appears, read: visual injury approx. 10 days, read-out: Plant response rating, Foxtail, Giant.
[13] abbreviates: visual injury, approx. 10 days, read-out: Plant response rating, Foxtail, Giant.
The mark [14] stands for this setting: visual injury vs untreated controls after approx. 10 days, read-out: Foxtail, Giant plant response rating.
Setting [15] is: read-out: Plant response rating, Foxtail, Giant.

Like-named read-outs stand apart in the source and are kept apart here.

Take `Cc1cc(C)c(N(COC(=O)C(C)(C)C)S(=O)(=O)C(F)(F)F)cc1C1=NOC2CCCCCC12` (single isomer, unassigned) [Compound 294]: the “Plant response rating, Rice (0 to 100 scale, 0 is no effect, 100 is complete control)” value in assay [1] is 0. Besides, the “Plant response rating, Ducksalad (0 to 100 scale, 0 is no effect, 100 is complete control)” value in assay [2] was 70. The “Plant response rating, Barnyardgrass (0 to 100 scale, 0 is no effect, 100 is complete control)” value in assay [3] was 95. Moreover, the “Plant response rating, Foxtail, Giant” value is 0 in assay [4] (setting [9]) and 20 in assay [4] (setting [10]). The “Plant response rating, Oat, Wild” value in assay [5] (setting [9]) is recorded as 0; in assay [5] (setting [10]) it was 20. For the same molecule, the “Plant response rating, Kochia” value was determined as 0 in assay [6] (setting [9]) and 60 in assay [6] (setting [10]). The “Plant response rating, Wheat” value in assay [7] (setting [11]) is given as 0; in assay [7] (125 g ai/ha, 0 to 100 scale), 20.
Regarding `Cc1cc(Cl)c(NS(=O)(=O)C(F)(F)F)cc1C(=O)N1CCOCC1` [Compound 16, N-[2-Chloro-4-methyl-5-(4-morpholinylcarbonyl)phenyl]-1,1,1-trifluoromethanesulfonamide], the pest or weed control at 125 g/ha in assay [8] (setting [12]) amounted to 40%. Moreover, the pest or weed control at 500 g/ha in assay [8] (setting [13]) came out at 90%.
As for `Cc1cc(Cl)c(NS(=O)(=O)C(F)(F)F)cc1C(=O)N1CCCCC1` [Compound 18, N-[2-Chloro-4-methyl-5-(1-piperidinylcarbonyl)phenyl]-1,1,1-trifluoromethanesulfonamide], the pest or weed control at 125 g/ha in assay [8] (setting [12]) was found to be 20%. The pest or weed control at 500 g/ha in assay [8] (setting [13]) is 70%.
With `CCc1cc(-c2cc(NS(=O)(=O)C(F)(F)F)c(C)cc2C)c(=O)n(C)n1` [Compound 34, N-[5-(6-Ethyl-2,3-dihydro-2-methyl-3-oxo-4-pyridazinyl)-2,4-dimethylphenyl]-1,1,1-trifluoromethanesulfonamide], the pest or weed control at 125 g/ha in assay [8] (setting [12]) is 0%. Moreover, the pest or weed control at 500 g/ha in assay [8] (setting [13]) is 0%.
Regarding `Cc1cc(C)c(N(COC(=O)C(C)(C)C)S(=O)(=O)C(F)(F)F)cc1C1=NO[C@@H]2CCC[C@H]12` [Compound 100, [[2,4-Dimethyl-5-[(3aR,6aR)-3a,5,6,6a-tetrahydro-4H-cyclopent[d]isoxazol-3-yl]phenyl][(trifluoromethyl)sulfonyl]amino]methyl 2,2-dimethylpropanoate], the pest or weed control at 125 g/ha in assay [8] (setting [12]) was 10%. The pest or weed control at 500 g/ha in assay [8] (setting [14]) amounted to 40%.
As to `Cc1cc(C)c(C2=NO[C@@H]3CCC[C@H]23)cc1NS(=O)(=O)C(F)(F)F` [Compound 103, N-[2,4-Dimethyl-5-[(3aR,6aR)-3a,5,6,6a-tetrahydro-4H-cyclopent[d]isoxazol-3-yl]phenyl]-1,1,1-trifluoromethanesulfonamide], in assay [8] (setting [12]), the pest or weed control at 125 g/ha came out at 30%. Besides, in assay [8] (setting [14]), the pest or weed control at 500 g/ha was 70%.
`Cc1cc(C)c(C2=NOC3CCOCC23)cc1NS(=O)(=O)C(F)(F)F` (centres unmarked) [Compound 120, N-[2,4-Dimethyl-5-(3a,6,7,7a-tetrahydro-4H-pyrano[3,4-d]isoxazol-3-yl)phenyl]-1,1,1-trifluoromethanesulfonamide]: the pest or weed control at 125 g/ha in assay [8] (setting [12]) came out at 40%. Also, in assay [8] (setting [14]), the pest or weed control at 500 g/ha was 90%.
As for `Cc1cc(C)c(C2=NOC3COCCC23)cc1NS(=O)(=O)C(F)(F)F` (centres unmarked) [Compound 121, N-[2,4-Dimethyl-5-(3a,4,7,7a-tetrahydro-5H-pyrano[4,3-d]isoxazol-3-yl)phenyl]-1,1,1-trifluoromethanesulfonamide], the pest or weed control at 125 g/ha in assay [8] (setting [12]) amounted to 50%. In addition, the pest or weed control at 500 g/ha in assay [8] (setting [14]) came out at 90%.
As to `Cc1c(NS(=O)(=O)C(F)(F)F)cc(C(=O)N(C)C)c(C)c1F` [Compound 128, 3-Fluoro-N,N,2,4-tetramethyl-5-[[(trifluoromethyl)sulfonyl]amino]benzamide], in assay [8] (setting [12]), the pest or weed control at 125 g/ha is 10%. Moreover, the pest or weed control at 500 g/ha in assay [8] (setting [14]) was found to be 50%.
As to `Cc1cc(C)c(N(COC(=O)C(C)(C)C)S(=O)(=O)C(F)(F)F)cc1C1=NOC2(CCCC2)C1` [Compound 140, [[2,4-Dimethyl-5-(1-oxa-2-azaspiro[4.4]non-2-en-3-yl)phenyl][(trifluoromethyl)sulfonyl]amino]methyl 2,2-dimethylpropanoate], in assay [8] (setting [12]), the pest or weed control at 125 g/ha was determined as 30%. Besides, the pest or weed control at 500 g/ha in assay [8] (setting [14]) amounted to 90%.
Take `Cc1cc(C)c(N(COC(=O)C(C)(C)C)S(=O)(=O)C(F)(F)F)cc1C1=NOC2(CCCCC2)C1` [Compound 159, [[2,4-Dimethyl-5-(1-oxa-2-azaspiro[4.5]dec-2-en-3-yl)phenyl][(trifluoromethyl)sulfonyl]amino]methyl 2,2-dimethylpropanoate]: the pest or weed control at 125 g/ha in assay [8] (setting [15]) was 0%. Further, the pest or weed control at 500 g/ha in assay [8] (setting [14]) was determined as 30%.
`Cc1c(NS(=O)(=O)C(F)(F)F)cc(C(=O)N2CCOCC2)c(C)c1F` [Compound 190, 1,1,1-Trifluoro-N-[3-fluoro-2,4-dimethyl-5-(4-morpholinylcarbonyl)phenyl]methanesulfonamide]: the pest or weed control at 125 g/ha in assay [8] (setting [15]) amounted to 20%. For the same molecule, the pest or weed control at 500 g/ha in assay [8] (setting [14]) came out at 80%.
In the same order, the values of `Cc1cc(C)c(C2=NOC3(CCCCC3)C2)cc1NS(=O)(=O)C(F)(F)F` [Compound 197, N-[2,4-Dimethyl-5-(1-oxa-2-azaspiro[4.5]dec-2-en-3-yl)phenyl]-1,1,1-trifluoromethanesulfonamide] are 80% and 90%.
In the case of `Cc1cc(C)c(C2=NOC3(CCCC3)C2)cc1NS(=O)(=O)C(F)(F)F` [Compound 207, N-[2,4-Dimethyl-5-(1-oxa-2-azaspiro[4.4]non-2-en-3-yl)phenyl]-1,1,1-trifluoromethanesulfonamide], the pest or weed control at 125 g/ha in assay [8] (setting [15]) is 50%. In assay [8] (setting [14]), the pest or weed control at 500 g/ha turned out to be 90%.
In the case of `Cc1cc(Cl)c(NS(=O)(=O)C(F)(F)F)cc1C(=O)N1CCC(F)(F)CC1` [Compound 229, N-[2-Chloro-5-[(4,4-difluoro-1-piperidinyl)carbonyl]-4-methylphenyl]-1,1,1-trifluoromethanesulfonamide], the pest or weed control at 125 g/ha in assay [8] (setting [15]) was 50%. Moreover, in assay [8] (setting [14]), the pest or weed control at 500 g/ha was found to be 90%.
With `Cc1cc(C)c(C(=O)N2CCC(F)(F)CC2)cc1NS(=O)(=O)C(F)(F)F` [Compound 241, N-[5-[(4,4-Difluoro-1-piperidinyl)carbonyl]-2,4-dimethylphenyl]-1,1,1-trifluoromethanesulfonamide], the pest or weed control at 125 g/ha in assay [8] (setting [15]) came to 0%. For the same molecule, the pest or weed control at 500 g/ha in assay [8] (setting [12]) came to 30%.
For the molecule `Cc1cc(C)c(-n2nccc(C)c2=O)cc1NS(=O)(=O)C(F)(F)F` [Compound 281], the “Plant response rating, Rice (0 to 100 scale, 0 is no effect, 100 is complete control)” value in assay [1] is reported as 0. In addition, the “Plant response rating, Ducksalad (0 to 100 scale, 0 is no effect, 100 is complete control)” value in assay [2] turned out to be 0. In assay [3], the “Plant response rating, Barnyardgrass (0 to 100 scale, 0 is no effect, 100 is complete control)” value was determined as 0. Moreover, the “Plant response rating, Foxtail, Giant” value in assay [4] (setting [9]) was found to be 0; in assay [4] (setting [10]), 100. Moreover, the figures for the “Plant response rating, Oat, Wild” value in assay [5] (setting [9]) and in assay [5] (setting [10]) were 50 and 0, respectively. Further, the “Plant response rating, Kochia” value in assay [6] (setting [9]) worked out at 0; in assay [6] (setting [10]), 20. Besides, the “Plant response rating, Wheat” value in assay [7] (setting [11]) came to 0; in assay [7] (125 g ai/ha, 0 to 100 scale), 20.
Take `COc1cnn(-c2cc(NS(=O)(=O)C(F)(F)F)c(C)cc2C)c(=O)c1OC` [Compound 282]: the “Plant response rating, Rice (0 to 100 scale, 0 is no effect, 100 is complete control)” value in assay [1] is reported as 0. The “Plant response rating, Ducksalad (0 to 100 scale, 0 is no effect, 100 is complete control)” value in assay [2] is reported as 65. Moreover, the “Plant response rating, Barnyardgrass (0 to 100 scale, 0 is no effect, 100 is complete control)” value in assay [3] is listed as 0. The “Plant response rating, Foxtail, Giant” value amounted to 0 in assay [4] (setting [9]) and 30 in assay [4] (setting [10]). Further, the “Plant response rating, Oat, Wild” value worked out at 20 in assay [5] (setting [9]) and 30 in assay [5] (setting [10]). The “Plant response rating, Kochia” value in assay [6] (setting [9]) is reported as 0; in assay [6] (setting [10]), 80. In addition, the “Plant response rating, Wheat” value in assay [7] (setting [11]) was 60; in assay [7] (125 g ai/ha, 0 to 100 scale), 80.
Take `Cc1c(NS(=O)(=O)C(F)(F)F)cc(C(=O)N(C)C)c(C)c1Cl` [Compound 287]: the “Plant response rating, Rice (0 to 100 scale, 0 is no effect, 100 is complete control)” value in assay [1] is given as 0. In assay [2], the “Plant response rating, Ducksalad (0 to 100 scale, 0 is no effect, 100 is complete control)” value came to 75. Further, the “Plant response rating, Barnyardgrass (0 to 100 scale, 0 is no effect, 100 is complete control)” value in assay [3] is recorded as 0. Also, the entries for the “Plant response rating, Foxtail, Giant” value in assay [4] (setting [9]) and in assay [4] (setting [10]) were 0 and 30, respectively. Also, the “Plant response rating, Oat, Wild” value worked out at 0 in assay [5] (setting [9]) and 10 in assay [5] (setting [10]). Also, the entries for the “Plant response rating, Kochia” value in assay [6] (setting [9]) and in assay [6] (setting [10]) were 20 and 60, respectively. Further, the “Plant response rating, Wheat” value in assay [7] (setting [11]) came to 0; in assay [7] (125 g ai/ha, 0 to 100 scale), 10.
